Results on 87 molecules are retold here after a melting point compilation (Tetko et al.; mined from patent text by program, amines drawn as free bases though some values may be those of a salt).

Structures are written as SMILES.

As to `O=C(NC1CCNC1=O)c1cccc(-c2cccc3oc(Cc4cccc(C(F)(F)F)c4)cc23)c1` (configuration not stated), the melting point (commonly the temperature of the solid-liquid transition) lay within 110 to 120 °C.
To `CCOC(=O)CSc1nc(Cl)cc(NN=Cc2ccc(Cl)cc2)n1` belongs 162 to 165 °C; to `COc1ccc(N2CN(c3ccccc3)C(N)=C3C=NN=C32)cc1`, 204 to 206 °C; to `OCc1cnoc1-c1ccc2c(c1)OCO2`, 92 to 93 °C.
With `C=CCn1cc(C(O)(c2ccc3c(cnn3-c3ccc(F)cc3)c2)C(F)(F)F)c2ccn(C)c(=O)c21` (configuration not stated) the figure was 91 to 93 °C; with `O=c1c2cc(F)c(N3CCCC3)cc2n(-c2cccc(F)c2)c(=O)n1O`, 239 to 241 °C.
With `CC(C)Cn1c(CN2CCCS2(=O)=O)nc2c(N)nc3ccccc3c21` the figure was 230 to 232 °C; with `CC#CCOc1ccc(SC(C(=O)NO)c2ccc(-c3cccs3)cc2)cc1` (configuration not stated), 182 °C; with `CC1SC(c2cccnc2)N(CC(=O)OC(C)(C)C)C1=O` (configuration not stated), 108 °C.
In the case of `O=C(O)c1cnc(-c2ccc(OCc3ccccc3)cc2)nc1`, the melting point stood at 299 °C.
To `COC(=O)c1ccccc1S(=O)(=O)NC(=O)Nc1nc(C)cc(OC(F)F)n1` belongs 162 to 164 °C; to `CCc1cc(Cl)cnc1N`, 67 to 68 °C.
With `Nc1nc2c(ncn2OC(CO)CCP(=O)(O)O)c(=O)[nH]1` (configuration not stated) the figure was 177 to 178 °C; with `Cc1sc2c(c1C)C(c1ccc(Cl)cc1)=NC(CC(=O)Nc1ncccn1)c1nnc(C)n1-2` (configuration not stated), 251 to 253 °C; with `COc1ccc(C2=NN(C3CCN(C(=O)NC(C)(C)C)CC3)C(=O)[C@@H]3CC=CC[C@H]23)cc1OC`, 164 to 166 °C.
With `CC(=O)Nc1c(C(=O)c2ccccc2)[nH]c2cccc(Cl)c12` the figure was 221 to 222 °C; with `Brc1cc(-c2ccccc2)on1`, 71 to 73 °C; with `ClC1=NC(Cl)(C(Cl)(Cl)C(Cl)(Cl)Cl)N=C1Cl`, 74 to 75 °C.
Consider `COc1ccc(Oc2c(OC)cc([N+](=O)[O-])c3nccc(C)c23)cc1`, for which the melting point lay within 158 to 160 °C.
As for `O=C(NC1C(=O)Nc2ccccc2SC1c1ccccc1)OCc1ccccc1` (configuration not stated), the melting point lay within 246 to 248 °C.
To `O=C(Nc1nc(C(F)(F)F)co1)C1c2cc(F)ccc2Oc2ccc(F)cc21` belongs 259 °C.
With `O=C1c2ccccc2C(=O)N1CCCCc1ccc(S(=O)(=O)Cl)cc1` the figure was 122 to 125 °C; with `CC(=O)OCc1cccc(C(C)C)c1NC(=O)CC1c2ccccc2Oc2ccccc21`, 155 to 156 °C; with `CC(C(=O)Oc1cc(=O)n(-c2cccc(OC(F)(F)F)c2)c2ncccc12)c1ccccc1` (configuration not stated), 115 to 117 °C.
With `Cc1nc(O)c(C)c(Cl)n1` the figure was 224 to 225 °C; with `CCN(CC)CCc1c[nH]c2ccc(N(CC)S(=O)(=O)c3ccc4ccccc4c3)cc12`, 49 to 50 °C; with `CCCCc1nc2cc(Cl)cc(C(=O)OC)c2n1Cc1ccc(-c2ccccc2-c2nnn[nH]2)cc1`, 132 to 133 °C.
Turning to `Fc1cccc(F)c1-c1nccc(-c2ccc(Br)cc2)n1`, the melting point lay in the range of 130 to 131 °C.
With `Clc1ccc2c(C3CCN(CCCOc4cccc5[nH]ccc45)CC3)c[nH]c2c1Cl` the figure was 160 to 165 °C; with `Cc1nc2c(OCc3c(Cl)ccc(S(=O)(=O)N4CCC[C@H]4C(=O)NCCCNC(=O)c4ccc(C=NN)cc4)c3Cl)cccn2c1Cl`, 115 °C; with `COc1cc(OC)c2c(=O)[nH]c(-c3cccc(OCCO)c3)nc2c1`, 245 to 246 °C.
To `Fc1ccc2c(CN3CC=C(CCc4ccccc4)CC3)c[nH]c2c1` belongs 150 to 152 °C; to `CCC(NC(=O)OCc1ccccc1)C(=O)Nc1ccc(-n2nc(C(F)(F)F)cc2C(F)(F)F)cc1` (configuration not stated), 158 to 160 °C.
To `N#Cc1cnc2cc(Br)sc2c1Cl` belongs 190 to 191 °C.
Molecule `CN(C1c2cc(OCc3ccccc3)ccc2OC(C)(C)C1O)S(C)(=O)=O` (configuration not stated) displayed a melting point of 162 to 164 °C.
To `Cc1nc(-c2ccc3c(c2)CCCC3)c(CCC(=O)O)o1` belongs 135 to 136 °C; to `CN1CCN(C)CCN2CCOCCOCCN(CC1)CCN(C)CCN(C)CC2`, 32 to 33 °C; to `CNC(=O)N1CCc2[nH]cnc2C1c1ccccc1` (configuration not stated), 180 °C.
For `COC(=O)CCCc1cc2nc(Cl)ccc2n1S(=O)(=O)c1ccc2c(c1)CCO2`, the melting point came to 201 °C.
With `O=C(NO)c1ccc(CNC(=O)c2[nH]c(-c3cccs3)cc2-c2ccc(O)cc2)cc1` the figure was 171 to 172 °C; with `Cc1noc(-c2ncn3c2CN(C)C(=O)c2cc(F)ccc2-3)n1`, 244 to 245 °C.
To `N#CNC1NN=C(c2ccc3ccccc3c2)O1` (configuration not stated) belongs > 250 °C; to `CSc1nc(-c2ccc(F)cc2)c(-c2ccnc(OC(C)C)c2)[nH]1`, 141 °C; to `COc1ccc(-c2nc(C)c(NC(C)=O)[nH]2)cc1`, 202 to 204 °C.
With `COc1cc(C=O)ccc1OCc1coc(-c2ccco2)n1` the figure was 138 to 139 °C; with `C[C@H]1CN(C(=O)OC(C)(C)C)CCCN1S(=O)(=O)c1ccccc1[N+](=O)[O-]`, 113 to 114 °C.
For the molecule `OCc1ccc2c(c1)ncn2-c1cccc(-c2cccnc2)c1`, the melting point was in the range of 183 to 185 °C.
To `CCC(=O)OC1CCC2C3CCC4=CC(=O)CCC4(C=O)C3CCC12C` (configuration not stated) belongs 119 to 121 °C.
As for `N#CCCNC(=O)c1cccc(-c2ncc3ccn(Cc4ccc(Cl)cc4Cl)c3n2)c1`, the melting point lay in the range of 198 to 199 °C.
To `C=CC(=O)OCCCCCCOc1ccc(-c2cccc(F)c2F)cc1` belongs 45.6 to 46.8 °C; to `CN(C)c1ccc(CCc2nc3sc4c(n3c2CO)CCCCC4)cc1`, 168 to 170 °C; to `Cc1cnc(CCCCNc2ncc(Cc3ccc(C)nc3)c(=O)[nH]2)c(Br)c1`, 148 to 151 °C.
With `OC(CCl)(c1ccccc1)c1ccc(-c2ccccc2)cc1` (configuration not stated) the figure was 94 °C; with `O=C(O)CN1C(=O)C(=O)N(Cc2cccc([N+](=O)[O-])c2)C1=S`, 188 °C.
With `O=C(O)c1cc(Cl)ccc1-n1cccc1` the figure was 178 °C; with `CN(C[C@@H]1C[C@H]1COc1ccc(C(=O)c2ccc(Br)cc2)cc1)C1CC1` (racemic), 136 to 137 °C.
As to `COc1ccc(C(=O)Nc2c(Cl)cncc2Cl)c2c3cc(Cl)ccc3n(Cc3ccc(F)cc3)c12`, the melting point was in the range of 249 to 250 °C.
For `CC1(CCO)c2ccccc2-c2ccccc21`, the melting point is 84 to 85 °C.
To `CCCCSc1cnc2c(c1)CCC(c1ccc(Cl)c(Cl)c1)O2` (configuration not stated) belongs 59.5 to 61 °C; to `O=c1[nH]cnc2ccc(C(F)(F)F)cc12`, 209 to 211 °C; to `CCCS(=O)(=O)c1csc2c(=O)n([C@H](C)[C@](O)(Cn3cncn3)c3ccc(F)cc3F)cnc12`, 115 to 122 °C.
In the case of `O=C1C=C(NC(=O)C(=O)c2cn(Cc3c(F)cccc3F)c3ccccc23)CO1`, the melting point lay within 252 to 256 °C.
With `CC(C(=O)O)n1cc(-c2ccc(Oc3ccccc3)cc2)c2c(N)ncnc21` (configuration not stated) the figure was 240 to 241 °C.
To `Clc1cc(CBr)c(CBr)cc1Cl` belongs 55 to 56 °C.
`CC(C)(C)[Si](C)(C)OCCn1nc(C=O)cc1C=O`: the melting point was 63 to 64 °C.
With `N#Cc1c(-c2cccc(C(=O)NCCO)c2)cc(-c2ccccc2O)nc1NC(=O)c1cccs1` the figure was 218 to 219 °C.
Turning to `O=C(NNc1ccc(NC(=S)Nc2ccccc2)cc1)c1ccccc1`, the melting point lay in the range of 149 to 151 °C.
Consider `N#CCCn1cc(C#N)c([N+](=O)[O-])n1`, for which the melting point was 137 to 139 °C.
Molecule `N#Cc1ccc(Cn2cncc2CCNC(=O)[C@H]2CN(Cc3ccccc3)CCN2C(=O)CC2CCN(C(N)=O)CC2)cc1` yielded a melting point of 118 °C.
For the molecule `CC1(O)c2ccccc2C=C(Br)c2ccncc21` (configuration not stated), the melting point lay within 226 to 230 °C.
With `CC(C)(C)Nc1c(Nc2ccc3cn[nH]c3c2)c(=O)c1=O` the figure was 183 to 185 °C; with `O=C(O)CCCOc1ccc([C@H]2c3ccc(O)cc3OC[C@H]2c2ccccc2)cc1` (racemic), 91.5 to 94 °C.
In turn, `COC(=O)[C@@H]1C[C@H](C(=O)O)Nc2cc(Cl)ccc21` (relative stereo) registered a melting point of 122 to 124 °C.
With `CCOP(=O)(CCCCCCOc1ccc(C(=O)O)cc1)OCC` the figure was 215 to 216 °C.
With `COC1=C(OC)C(=O)C2=C(CC(CCCCCCCC(N)=O)(C(N)=O)C2)C1=O` the figure was 140 to 143 °C; with `Cc1ccc(-c2cc3ccc(C(=O)Nc4ccc(CN(C)C5CCOCC5)cc4)cc3o2)cc1`, 224 to 227 °C; with `CCOC(=O)CNc1cc(Cl)nc(NCc2ccc(Cl)cc2)n1`, 168 to 170 °C.
The molecule `C=Cn1ccnc1C(O)(c1ccccc1)c1ccccc1C(C)(C)C` (configuration not stated) had a melting point of 152 to 153 °C.
With `CC(C)(C)C(=O)Nc1c(F)cc(F)cc1Oc1ccc(C(C)(C)C(N)=O)cc1` the figure was 169 to 170 °C; with `Clc1ncn(COc2ccc(Oc3ccccc3)cc2)c1Cl`, 82 to 83 °C.
With `Cc1nc2cc(NC(=O)c3cc4cc(F)ccc4n3Cc3cccc(F)c3)cnc2n1C` the figure was 274 to 275 °C; with `CSCc1cc(=O)c2ccccc2o1`, 77 to 79 °C.
To `CCCSc1ncc(C(Cc2ccccc2)C(=O)O)n1Cc1ccccc1Cl` (configuration not stated) belongs 60 to 63 °C; to `CCn1ncc2cc3c(nc21)C(O)c1ccccc1CC3` (configuration not stated), 130 to 132 °C.
Consider `CC(C)CNc1nc2c(n1C)C(=O)N1CCN=C1N2Cc1ccc(Cl)cc1`, for which the melting point is 185 to 187 °C.
As to `C#CCN(C(CCn1c(=O)[nH]cc(C(F)(F)F)c1=O)C(=O)NO)S(=O)(=O)c1ccc(Oc2ccccc2)cc1` (configuration not stated), the melting point was 170 to 171 °C.
To `CN(C)c1c(-c2ccccc2)sc2ccc(Cl)cc12` belongs 79 to 81 °C.
